Results as given in patent US5688913A, “CS-1 peptidomimetics, compositions and methods of using the same” (Cytel Corporation, priority 1995, dated 1997).
Like-named read-outs stand apart in the source and are kept apart here. Square brackets hold non-standard residues; d marks the D form. Peptide text beside a SMILES is read from it. * marks the point of attachment. code Z = Europium label (diethylenetriaminepentaacetatoeuropium); NHOctadecyl = CCCCCCCCCCCCCCCCCCN*; NHPhenethyl = c1ccc(CCN*)cc1; Morpholide = C1CN(*)CCO1; PhAc = O=C(Cc1ccccc1)*; Ahx = NCCCCCC(=O)O; NHNH2 = NN*

What was measured:
[1] = system: murine contact hypersensitivity; conditions: cited from earlier work
[2] = Elices et al. 1993; by proteolytic degradation; cited from earlier work
[3] = system: New Zealand white rabbits; assay: Treatment of asthmatic rabbits (house dust mite antigen challenge, crossover); type: in vivo, rabbit
Protocol: Six New Zealand white rabbits were immunized with house dust mite antigen from birth through four months of age. Upon immunization, three rabbits received a single nebulizer administration of the inhibitor peptide N-phenylacetyl-Leu-Asp-Phe-morpholinamide in aqueous 50 percent ethanol as diluent in an amount of 100 mg/kg, and the other three received diluent alone. All of the rabbits were challenged with house dust mite antigen about 15-30 minutes after administration of the peptide, with those animals not receiving peptide serving as controls.
Once immunized and challenged, the inflammatory state subsides to a basal level within about three weeks. The three animals used as controls were thereafter used as subjects for receipt of an inhibitor peptide, and the three rabbits that initially received the peptide can serve as controls.
Such a crossover study was done here. Thus, the three initial control rabbits were treated with the above inhibitor peptide in the above diluent at a time more than three weeks after the above study, and the three previous recipients of the peptide were administered the diluent alone. All six were than challenged again.
Initial pulmonary function, measured by dynamic compliance (Cdyn) and lung resistance (RL), and bronchoalveolar lavage (BAL) to obtain an effector cell count, here eosinophils, were conducted prior to administration of the peptide or diluent for both portions of this crossover study. Similar assays were then taken one-half hourly after challenge for six hours (early phase allergic reaction) and at 24 hours after challenge (late stage allergic reaction) for both portions of this study.
These studies were conducted by Dr. W. J. Metzger of East Carolina University, Greenville, N.C. as described by W. J. Metzger in CRC Handbook of Late Phase Reactions, W. Dorsch, ed., Chapter 35, CRC Press, Boca Raton, Fla. (1990) pages 347-362.
The results of this study for the pulmonary function parameters are shown in FIG. 4A and FIG. 4B, in which data for the challenged, inhibitor peptide-treated animals are shown as open circles and data for the challenged, untreated, control animals are shown in blackened circles.

[4] = Retention of potency in PBS containing 10 percent serum; conditions: PBS at 7.2-7.4 containing 10 percent mouse or human serum
VLA-4 [5] = molecular target: T1, VLA-4 (Homo sapiens, UniProt P05556+P13612); assay: cell-based; type: cell-based; design: host or cells: Jurkat (human T lymphoblastic line)
T1 sequence (P13612 34-1032): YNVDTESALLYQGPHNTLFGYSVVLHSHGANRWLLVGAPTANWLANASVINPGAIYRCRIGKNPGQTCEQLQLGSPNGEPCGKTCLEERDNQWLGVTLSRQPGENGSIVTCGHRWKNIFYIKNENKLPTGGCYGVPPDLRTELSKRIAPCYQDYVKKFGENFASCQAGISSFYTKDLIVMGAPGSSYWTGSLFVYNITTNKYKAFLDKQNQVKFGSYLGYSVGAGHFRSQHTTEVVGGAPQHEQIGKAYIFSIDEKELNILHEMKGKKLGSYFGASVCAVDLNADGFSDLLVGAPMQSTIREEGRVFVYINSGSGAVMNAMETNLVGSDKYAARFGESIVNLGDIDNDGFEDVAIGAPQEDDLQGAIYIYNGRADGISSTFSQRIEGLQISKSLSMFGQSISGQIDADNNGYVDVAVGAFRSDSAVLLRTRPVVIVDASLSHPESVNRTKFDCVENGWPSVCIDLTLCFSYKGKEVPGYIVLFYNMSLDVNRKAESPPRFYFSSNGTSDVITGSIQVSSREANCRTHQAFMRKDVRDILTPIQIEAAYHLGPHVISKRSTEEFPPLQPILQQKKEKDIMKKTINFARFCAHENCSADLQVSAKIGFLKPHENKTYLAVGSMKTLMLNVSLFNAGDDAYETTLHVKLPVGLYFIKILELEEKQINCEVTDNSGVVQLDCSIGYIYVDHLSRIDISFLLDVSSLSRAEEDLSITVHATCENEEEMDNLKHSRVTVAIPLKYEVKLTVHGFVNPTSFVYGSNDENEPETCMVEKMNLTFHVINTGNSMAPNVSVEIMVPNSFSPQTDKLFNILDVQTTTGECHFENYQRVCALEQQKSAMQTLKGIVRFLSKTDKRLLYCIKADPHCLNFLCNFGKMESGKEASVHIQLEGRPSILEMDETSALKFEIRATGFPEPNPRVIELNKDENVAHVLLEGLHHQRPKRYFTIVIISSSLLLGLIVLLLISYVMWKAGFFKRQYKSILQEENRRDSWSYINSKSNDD
T1 sequence (P05556 21-798): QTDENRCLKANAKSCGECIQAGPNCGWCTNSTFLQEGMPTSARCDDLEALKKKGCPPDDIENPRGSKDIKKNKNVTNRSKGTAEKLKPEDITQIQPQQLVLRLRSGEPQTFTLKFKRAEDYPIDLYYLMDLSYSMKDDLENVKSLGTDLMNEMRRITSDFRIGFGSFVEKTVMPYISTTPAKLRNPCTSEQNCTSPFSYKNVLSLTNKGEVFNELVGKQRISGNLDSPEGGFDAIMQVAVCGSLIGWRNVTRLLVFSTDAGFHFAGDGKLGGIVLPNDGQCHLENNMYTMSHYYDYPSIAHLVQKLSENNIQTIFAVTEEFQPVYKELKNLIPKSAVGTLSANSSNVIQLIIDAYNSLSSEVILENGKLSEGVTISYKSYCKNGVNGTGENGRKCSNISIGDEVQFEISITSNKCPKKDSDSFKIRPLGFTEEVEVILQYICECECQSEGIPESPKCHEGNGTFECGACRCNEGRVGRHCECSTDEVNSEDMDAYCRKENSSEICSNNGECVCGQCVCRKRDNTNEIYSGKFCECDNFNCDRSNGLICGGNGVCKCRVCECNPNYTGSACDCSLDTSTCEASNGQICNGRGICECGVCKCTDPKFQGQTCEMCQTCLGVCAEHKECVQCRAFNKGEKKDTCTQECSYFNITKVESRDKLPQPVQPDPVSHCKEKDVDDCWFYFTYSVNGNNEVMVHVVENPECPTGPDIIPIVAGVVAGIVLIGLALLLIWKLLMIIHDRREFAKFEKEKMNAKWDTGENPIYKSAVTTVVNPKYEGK
How it was run: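 51Cr-labelled Jurkat cells (human T lymphoblastic) were preincubated 30 min at about 22 °C with peptide, then allowed to bind 30 min at 37 °C to wells coated with CS-1 peptide or CS-1-OVA. After washing, bound cells were lysed with SDS and counted. IC50 is the peptide concentration halving binding, normalized to plate controls.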

BALB/c mice = assay: Delayed type hypersensitivity in mice (adoptive transfer, oxazolone); type: in vivo, mouse; conditions: 6 mg/kg/day subcutaneously by implanted pump for 24 hours; FIG. 5
Protocol: An adoptive transfer delayed-type hypersensitivity murine model has been developed using splenic T cells primed to oxazolone. This model is described in Elices et al., Clin. Exp. Rheum., 11(Suppl. 8):577-580 (1993), whose procedures were followed here.
Thus, BALB/c mice were shaved on the belly and painted (50 μl on the belly and 5 μl on each paw) with three percent oxazolone in acetone/olive oil (4:1) at days zero and 1. At day 5, the mice were sacrificed, their spleens removed, and splenic T cells were obtained via nylon wool columns.
Normal saline or saline containing 25×10^6 /animal of the oxazolone-immune T cells were separately injected into naive mice. The mice were then challenged by painting 10 μl of 2 percent oxazolone onto one ear each. All procedures were carried out under sterile conditions and in endotoxing-free buffers.
Prior to challenge or saline injection, the mice were implanted with pumps that subcutaneously administered normal saline, normal saline containing the peptide N-phenylacetyl-Leu-Asp-Phe-D-Pro-NH2 or normal saline containing a peptide with a scrambled sequence continually at 6 mg/kg/day for a 24-hour time period. The swelling diameter at the site of challenge or saline injection was measured with a microcaliper 24 hours thereafter.

SJL/J mice = assay: Experimental autoimmune encephalomyelitis in mice; type: in vivo; conditions: 1 mg/mouse intraperitoneally at days 8 and 9; versus scrambled control peptide; FIG. 6
Source text: Experimental autoimmune encephalomyelitis (EAE) is a demyelinating disease of the central nervous system that can be induced in susceptible strains of mice and rats by immunization with myelin basic protein, proteolipid protein (PLP), or their immunodominant T cell determinants, or by injection of CD4-positive T cell clones specific for those determinants. EAE serves as an animal model of human multiple sclerosis. In both diseases, circulating leukocytes such as T cells and monocytes penetrate the blood/brain barrier and damage myelin, resulting in paralysis.
EAE was induced in female SJL/J mice (8 to 14 weeks old) by immunization on day zero with 50 μg of a peptide corresponding to positions 139-151 of PLP emulsified in a 1:1 mixture of PBS and complete Freund's adjuvant (CFA). […]
Mice were observed daily, beginning at day 8 for clinical signs of EAE, and disease was scored on a scale of 0-5 as: 0=no disease; 1=floppy tail; 2=moderate hind limb weakness; 3=paraparesis; 4=paraplegis with moderate forelimb weakness; 5=qualdriplegis or premoribund state. […]
Summed or averaged scores for clinical signs were plotted vs. time. The area under the resulting curves was calculated between day 8 and day 35 to calculate percentage inhibition of EAE by an inhibitor peptide. The percent inhibition was calculated as follows: […]

[6] = Toxicity study at 600 mg/kg/day; type: in vivo
Source text: The results of this study are shown in the graph of FIG. 5 for the saline and recited inhibitor peptide treatments.

New Zealand white rabbit = assay: Rabbit cardiac allograft model; type: in vivo; conditions: 1 mg/kg/day injections, day 7
Protocol: New Zealand white rabbit SPF hearts were allografted into the necks of similar rabbits to assay a graft-vs-host immunorejection model and the affect of a contemplated peptide on that immunoinflammatory response. These studies were carried out by Dr. M. Rabinovitch of the Hospital for Sick Children, Toronto, Ontario, Canada.
Here, two rabbits were injected on day zero with 1 mg/kg/day of the inhibitor peptide N-phenylacetyl-Leu-Asp-Phe-D-Pro-NH2 in aqueous diluent. The two rabbits then each received a grafted heart, with the graft being made in the carotid artery to the aorta of the grafted heart, and the jugular vein to the pulmonary artery of the grafted heart. The rabbits thereafter received daily injections of the same dose of that peptide, and were sacrificed on day 7. Another animal that received normal saline injections in place of the peptide injections, also received a similarly allografted heart, and was similarly sacrificed at day 7.
The animals' blood vessels were thereafter examined histologically for evidence of arteriopathy, and particularly thickening of the intimal elastic lamina (IEL) layer of the coronary arteries. Thickening of the IEL is caused at least in part by emigration of effector cells bearing the CD2 marker such as T cells and NK cells. Clausell et al., Am. J. Path., 142(6):1772-1786 (1993). […]

Water solubility = type: physicochemical
VLA-4 [7] = molecular target: T1, VLA-4; conditions: cited from earlier work
[8] = 100 mg/kg single nebulizer administration, early phase 2-4 hours, versus challenged controls
[9] = 100 mg/kg single nebulizer administration, late phase 24 hours, versus challenged controls
[10] = normalized IC50 relative to standard peptide of SEQ ID NO:3 (=1), about one-tenth or less of the standard is assigned zero

Question: Which “inhibition of contact hypersensitivity” value ([1]; Elices et al. 1993) does the source give for CC[C@H](C)[C@H](NC(=O)[C@H](CCC(=O)O)NC(=O)[C@@H]1CCCN1C(=O)CNC(=O)[C@H](Cc1c[nH]cn1)NC(=O)[C@H](CC(C)C)NC(=O)[C@H](CC(N)=O)NC(=O)[C@@H]1CCCN1C(=O)[C@H](Cc1c[nH]cn1)NC(=O)[C@@H]1CCCN1C(=O)[C@H](CC(C)C)NC(=O)[C@@H](NC(=O)[C@@H](NC(=O)[C@H](CC(C)C)NC(=O)[C@H](CCC(N)=O)NC(=O)[C@@H]1CCCN1C(=O)[C@H](CC(C)C)NC(=O)[C@H](CCC(=O)O)NC(=O)[C@@H](N)CC(=O)O)C(C)C)[C@@H](C)O)C(=O)N[C@@H](CC(C)C)C(=O)N[C@@H](CC(=O)O)C(=O)N[C@H](C(=O)N1CCC[C@H]1C(=O)N[C@@H](CO)C(=O)N[C@H](C(=O)O)[C@@H](C)O)C(C)C [CS-1 peptide] (H-DELPQLVTLPHPNLHGPEILDVPST-OH) here?
Answer: unable to reproduce inhibition

Question: And the “inhibition of recruitment of T lymphocytes to skin inflammatory sites” value ([1]; Ferguson et al. 1991)?
Answer: partially inhibited

Question: What about the “clearance from blood circulation” value [2] of the same molecule?
Answer: rapidly cleared

Question: What does the source list for CC(C)C[C@H](NC(=O)Cc1ccccc1)C(=O)N[C@@H](CC(=O)O)C(=O)N[C@@H](Cc1ccccc1)C(=O)N1CCOCC1 [X L D F Z phenylacetyl morpholinamide, N-phenylacetyl-Leu-Asp-Phe-morpholinamide] (PhAc-Leu-Asp-Phe-Morpholide)?
Answer: Cdyn, % Reduction, Early phase [3, 8]: 94.4%; RL, % Reduction, Early phase [3, 8]: 80.1%; Cdyn, % Reduction, Late phase [3, 9]: 86.6%; RL, % Reduction, Late phase [3, 9]: 82.6%; Cdyn value over six hours after challenge ([3]; FIG. 4A, 100 mg/kg nebulized): stayed at about the initial value; RL values over six hours after challenge ([3]; FIG. 4B, 100 mg/kg nebulized): ≤ 200% of initial value; loss of potency after 24 hours [4]: no loss of potency; IC50 (VLA-4 [5]; Jurkat cells / solid phase-bound CS-1, read-out: absolute IC50 value): 180 to 300 nM; RELATIVE POTENCY (relative peptide inhibition of VLA-4 binding CS-1) (VLA-4 [5]; [10]): 844

Question: Which “reduction of inflammation (ear swelling diameter at challenge site)” value (BALB/c mice) does the source give for CC(C)C[C@H](NC(=O)Cc1ccccc1)C(=O)N[C@@H](CC(=O)O)C(=O)N[C@@H](Cc1ccccc1)C(=O)N1CCC[C@@H]1C(N)=O [X L D F p phenylacetyl amide, N-phenylacetyl-Leu-Asp-Phe-D-Pro-NH2] (PhAc-LDF[dP]-NH2) here?
Answer: reduced this type of CS-1/VLA-4-mediated immunoinflammation

Question: What about the “clinical signs of EAE” value (SJL/J mice) of the same molecule?
Answer: marked improvement in clinical signs

Question: And the “loss of potency after 24 hours” value [4]?
Answer: no loss of potency

Question: And the toxicity [6]?
Answer: no toxicity

Question: What about the “percentage of IEL thickening based on total coronary vessel area (lesion severity)” value (New Zealand white rabbit; 59 vessels of two rabbits, saline 35, basal about 15) of the same molecule?
Answer: about 18%

Question: And the “vessels exhibiting IEL thickening” value (New Zealand white rabbit; 141 vessels of two rabbits, saline about 80, basal about 20)?
Answer: about 30%

Question: And the IC50 (VLA-4 [5])?
Answer: ~500 nM

Question: And the “binding inhibition better than the standard 10-mer peptide of SEQ ID NO:3” value (VLA-4 [5])?
Answer: about 312 times

Question: What about the “RELATIVE POTENCY (relative peptide inhibition of VLA-4 binding CS-1)” value (VLA-4 [5]; [10]) of the same molecule?
Answer: 313

Question: With CC(C)C[C@H](NC(=O)Cc1ccccc1)C(=O)N[C@@H](CC(=O)O)C(=O)N(Cc1ccccc1)Cc1ccccc1 [X L D Z phenylacetyl dibenzylamide] as the molecule, how does the “RELATIVE POTENCY (relative peptide inhibition of VLA-4 binding CS-1)” value (VLA-4 [5]; [10]) read?
Answer: 0

Question: Which “RELATIVE POTENCY (relative peptide inhibition of VLA-4 binding CS-1)” value (VLA-4 [5]; [10]) does the source give for CC(C)C[C@H](NC(=O)Cc1ccccc1)C(=O)N[C@@H](CC(=O)O)C(=O)NN [X L D Z phenylacetyl hydrazide] (PhAc-Leu-Asp-NHNH2) here?
Answer: 1

Question: With CC(C)C[C@H](NC(=O)Cc1ccccc1)C(=O)N[C@@H](CC(=O)O)C(=O)NCCc1ccccc1 [X L D Z phenylacetyl phenethylamide] (PhAc-Leu-Asp-NHPhenethyl) as the molecule, how does the “RELATIVE POTENCY (relative peptide inhibition of VLA-4 binding CS-1)” value (VLA-4 [5]; [10]) read?
Answer: 19

Question: With CC(C)C[C@H](NC(=O)[C@H](N)Cc1ccccc1)C(=O)N[C@@H](CC(=O)O)C(=O)N[C@H](C(=O)N1CCC[C@@H]1C(=O)O)C(C)C [f L D V p free amine free acid] (H-[dF]LDV[dP]-OH) as the molecule, how does the “RELATIVE POTENCY (relative peptide inhibition of VLA-4 binding CS-1)” value (VLA-4 [5]) read?
Answer: 0

Question: With CCCCCCCCCCCCCCCCCCNC(=O)CCCCCNC(=O)[C@@H]1CCCN1C(=O)[C@H](Cc1ccccc1)NC(=O)[C@H](CC(=O)O)NC(=O)[C@H](CC(C)C)NC(=O)Cc1ccccc1 [phenylacetyl-Leu-Asp-Phe-Pro-NH(CH2)5 C(O)NHC18 H37] (PhAc-LDFP[Ahx]-NHOctadecyl) as the molecule, how does the water solubility (Water solubility) read?
Answer: not water-soluble

Question: What about the “RELATIVE POTENCY (relative peptide inhibition of VLA-4 binding CS-1)” value (VLA-4 [5]; [10]) of the same molecule?
Answer: 1

Question: Which “affinity of VLA-4 lower than for the native CS-1 25-mer” value (VLA-4 [7]) does the source give for Leu-Asp-Val [LDV] here?
Answer: at least two

Question: With “Z X F L D F p: X = ε-amidocaproyl, Z = Europium label (diethylenetriaminepentaacetatoeuropium), C-terminal amide ({code Z-ε‑amidocaproyl}-FLDF[dP]-NH2; also: europium chelate)” as the molecule, how does the “binding inhibition better than the standard 10-mer peptide of SEQ ID NO:3” value (VLA-4 [5]) read?
Answer: about 120 times

Question: And the “RELATIVE POTENCY (relative peptide inhibition of VLA-4 binding CS-1)” value (VLA-4 [5]; [10])?
Answer: 118
